Entries after “also recorded” stand apart in the source; their conditions may differ. Like-named read-outs stand apart in the source and are kept apart here.
Experiments:
[1] = tested on: MAC bacteria; format: cell-based, Mycobacterium avium complex; conditions: 2×MIC; starting inoculum 5.5 log10 CFU/ml
Protocol: In vitro, efficacy was studied in static time-kill kinetics assays (at 2×minimum inhibitory concentration [MIC]), intended to mirror a desired peak serum concentration for all three antibiotics using an established assay. All experiments were performed with a starting inoculum of 5.5 log10 CFU/ml MAC bacteria, higher than the bacterial load expected in the airway secretions of patients with mild nodular-bronchiectatic disease due to MAC.

[2] = tested on: MAC; assay: MIC of the MAC strains used in the HFS-MAC studies; format: cell-based, Mycobacterium avium complex; conditions: Mycobacterium avium
Protocol: The MAC strain used in the HFS-MAC studies was ATCC strain 700898. The study center also had 5 well-characterized clinical strains that have undergone whole-genome sequencing and habituation to the HFS-MAC. Stock cultures of MAC were stored at −80° C. in Middlebrook 7H9 broth with 10% OADC and 10% glycerol. THP-1 monocytes were stored in liquid nitrogen and have been habituated for the HFS-MAC growth conditions.

[3] = tested on: NTM; conditions: mouse models of systemic and lung infection; preclinical literature; cited from earlier work
[4] = cited from earlier work; for airway concentration relative to plasma (ELF:plasma ratio as percent): Dheda et al. 2018
[5] = tested on: intracellular MAC in THP-1 monocytes; assay: Hollow fiber system model of MAC (HFS-MAC): microbial kill; format: cell-based, Mycobacterium avium complex; conditions: HF experiments
Protocol: The anti-mycobacterial effects of CLR, CFZ, and RFB was evaluated in the hollow fiber system model of MAC (HFS-MAC), which recapitulates the intrapulmonary concentrations of these antibiotics. The HFS-MAC allows for an assessment of the contribution of individual drug components in terms of anti-mycobacterial effects and enables exploration of potential synergy, additivity, or antagonism of different doses of drugs and combination regimens on the log-phase growth of intracellular MAC, for both microbial kill and resistance suppression.
A two-part investigation was conducted to assess the contribution of components of various FDC products comprising CLR, CFZ, and RFB in terms of depth and rate of MAC kill and suppression of the emergence of resistance. The anti-MAC activity of each antibiotic component was evaluated as one-drug alone; as two-drug combinations and the three-drug combination. For each combination (singlet, doublet or triplet), the drug concentrations were sampled from the HF fluid bathing MAC-infected cells. […] Anti-MAC activity was evaluated by kill slopes defined as the kill rate constant (and the half-life of kill [reciprocal of the kill rate constant]) as well as the maximum kill, defined as the maximum reduction in MAC CFUs and compared between the different antibiotic combinations.
MAC was grown into log-phase for 4 days, parallel with cultivation of THP-1 monocytes. The THP-1 cells were then infected with MAC overnight at a multiplicity of infection of 1:1. The THP-1 cells were washed to remove extracellular bacteria, and 20 mL of 1×10^6 (6.0 log10) cells/mL were inoculated into each HFS-MAC on Study Day 0. The peripheral compartment is the abluminal hollow fibers space that is also enclosed by the plastic, while the intraluminal space and flow path form the central compartment. […]

[6] = tested on: M. avium; assay: MIC of antibiotics by broth microdilution, M. avium strains of Examples 3 and 4; format: cell-based, Mycobacterium avium subsp. hominissuis; conditions: 7H10 agar plates for tissue CFU counts
Protocol: Susceptibility testing was conducted using broth microdilution single and twofold dilutions as described in the literature. Suspensions were prepared by swabs on a growth plate with a sterile cotton swab, or were prepared in broth culture. The growth was transferred to a 4.5 mL of phosphate buffer solution (PBS) until the turbidity matched the density of a 0.5 McFarland standard. Suspensions were then vigorously mixed on a vortex mixer for 15 to 20 seconds. The final inoculum was prepared to a bacterial density of 10^5. The tube was inverted 8-10 times to mix the suspension.
Following both the four-week and eight-week treatment period, mice were sacrificed, and lungs and spleens were harvested for CFU counts in each tissue and compared to CFUs recovered in the baseline and vehicle-treated groups. Tissue samples were plated with and without antibiotic on 7H10 agar. Antibiotic plates were made with minimum inhibitory concentrations (MICs) of 8 μg/ml for clarithromycin, and 0.25, μg/ml for both rifabutin (RFB) and clofazimine (CFZ). Plates were made for each of clarithromycin (CLR) alone, clarithromycin plus either rifabutin (CLR+RFB) or clofazimine (CLR+CFZ) and the three-drug combination (CLR+RFB+CFZ). All plates were incubated in a microbiological incubator at 37° C. for 14 days.

[7] = 7-day mouse tolerability and PK study; conditions: for Cavg (clofazimine): AUCtlast/24 h; for AUC(0-t): AUCtlast (clofazimine); for AUC(0-t) / Cmax: mouse plasma; for Cmax: Cmax (clofazimine)
Protocol: Sixty (60) female mice were tested, 12 per treatment groups: […]

[8] = tested on: MAC; assay: Lung histopathology of mice infected with MAC and treated for four and eight weeks; format: in vivo, Mycobacterium avium complex; conditions: 32 sections per group
Text: Lung and Spleen Histopathology of Mice Infected with MAC and Treated with FDC Components Alone and in Combination for Four and Eight Weeks of Treatment
Each of the experimental group had eight cut examined from each lung (8×2 lungs=16×2 mice=32 sections). Lungs were normal and not showing any pathology at pre-infection.

[9] = Concentration vs. QTcF analysis of MAP Study data (linear mixed-effects model); format: in vivo, human
Protocol: A concentration vs. QTcF analysis was performed on a subset of data from the MAP Study where the PK sample was drawn within 1 hour of ECG extraction. The rationale for this window was based primarily on the assumption that at least for the rifabutin and clofazimine components, the long half-life would result in modest fluctuation of concentration over the dosing interval and thus the concentrations used in the analysis would enable fitting of a linear model suitable for prediction of the effect at the maximum concentration for each component (Cmax). Initially, a full model (including clarithromycin, 14-OH-clarithromycin, rifabutin, 25-O-desacetyl-rifabutin, and clofazimine) with random intercept and slopes per subject was fit and an unstructured covariance structure was used. […] Several models were then assessed with the best model retained, where only clofazimine concentration was retained as the drug component predictor of QT response.
The relationship between the individually observed clofazimine plasma concentrations and estimated placebo-adjusted ΔQTcF (i.e., ΔΔQTcF) is shown in FIG. 9. The solid line and the dotted line denotes the model-predicted mean ΔΔQTcF with 90% CI. The squares and circles denote the pairs of observed clofazimine plasma concentrations and estimated placebo-adjusted ΔQTcF by subjects for the RHB-104 and placebo treatment groups, respectively. […]

[10] = tested on: M. avium 104 biofilm; assay: In vitro biofilm model of infection; format: cell-based, Mycobacterium avium subsp. hominissuis; conditions: mean ± SD; CLR 1.9-4.3 μg/mL, RFB 0.04 μg/mL, CFZ 0.0005 μg/mL
[11] = female, C57BL/6, mouse, plasma, po, 10 mg/kg, Day 1, CFZ 10 mg/kg alone, oral
[12] = female, C57BL/6, mouse, plasma, po, 10 mg/kg, Day 7, CFZ 10 mg/kg alone, oral once daily
[13] = female, C57BL/6, mouse, plasma, po, 30 mg/kg, Day 1, CFZ 30 mg/kg alone, oral
[14] = female, C57BL/6, mouse, plasma, po, 30 mg/kg, Day 7, CFZ 30 mg/kg alone, oral once daily
[15] = female, C57BL/6, mouse, plasma, po, 30 mg/kg, Day 7, CFZ 30 mg/kg with CLR 200 mg/kg and RFB 60 mg/kg, oral once daily

## CC(C)/N=c1\cc2n(-c3ccc(Cl)cc3)c3ccccc3nc-2cc1Nc1ccc(Cl)cc1 [Clofazimine, clofazimine]
[1]
  activity as single drugs: bacteriostatic activity
[2]; Clinical strain #1
  MIC: 0.25 µg/mL
[2]; Clinical strain #2
  MIC: 0.25 µg/mL
[2]; Clinical strain #3
  MIC: 0.25 µg/mL
[2]; Clinical strain #4
  MIC: 0.25 µg/mL
[2]; Clinical strain #5
  MIC: 0.25 µg/mL
[3]
  Effective Dose: 20 mg/kg/day
[4]
  airway concentration relative to plasma (ELF:plasma ratio as percent): approximately 0.19%
[4]; listed as CFZ
  airway concentration relative to plasma (ELF:plasma ratio as percent): approximately 0.2%
[4]; epithelial lining fluid to total plasma/serum
  ELF:plasma ratio: 0.0019
[4]; human, in vivo
  half-life: > 100 days
[5]
  effect on CFUs / MAC killing, summary: CFU counts increased
[6]
  minimum inhibitory concentrations (MICs) used for antibiotic plates: 0.25 µg/mL
[7]; Day 7, CFZ 10 mg/kg alone
  Cavg (clofazimine): 223 ng/mL
[7]; Day 7, CFZ 30 mg/kg alone
  Cavg (clofazimine): 411 ng/mL
[7]; Day 7, CFZ 30 mg/kg with CLR 200 mg/kg and RFB 60 mg/kg
  Cavg (clofazimine): 829 ng/mL
[7]; female, C57BL/6, mouse, in vivo, po, 10 mg/kg, tmax (clofazimine)
  Tmax: 4 h
[7]; female, C57BL/6, mouse, in vivo, po, 30 mg/kg, Day 1, CFZ 30 mg/kg with CLR 200 mg/kg and RFB 60 mg/kg, oral
  AUC(0-t): 2230 ng·h/mL
[7]; [11]
  AUC(0-t): 2150 ng·h/mL
  Cmax: 108 ng/mL
[7]; [12]
  AUC(0-t): 5340 ng·h/mL
  Cmax: 277 ng/mL
[7]; [13]
  AUC(0-t): 3690 ng·h/mL
  Cmax: 181 ng/mL
[7]; [14]
  AUC(0-t): 9870 ng·h/mL
  Cmax: 460 ng/mL
[7]; [15]
  AUC(0-t): 19900 ng·h/mL
  Cmax: 957 ng/mL
[7]; female, C57BL/6, mouse, plasma, po, 30 mg/kg, Day 1, CFZ 30 mg/kg with CLR 200 mg/kg and RFB 60 mg/kg, oral
  Cmax: 152 ng/mL
[8]
  Lung Histopathology Findings: Mild diffuse congestion; also recorded: Minimal multi-focus congestion of lymphocytes and plasma cells; also recorded: Granulomas in multiple locations with mild number of bacteria; also recorded: Infiltrates into the bronchiolar walls
[9]; 90% CI 0.76 to 4.29
  treatment effect-specific intercept: 2.52 ms
[9]; clofazimine plasma concentration, RHB-104 MAP Study, 90% CI 0.0337 to 0.0410
  estimated population slope of the concentration-QTc relationship: 0.037 ms per ng/mL
[10]
  Colony Forming Unit Concentration, Four Days: 1.91 ± 0.6 × 10^7 CFU/mL
  Colony Forming Unit Concentration, Seven Days: 1.42 ± 0.5 × 10^7 CFU/mL

— patent publication US11590154B2, “Triple antibiotic fixed-dose combination products, dosing regimen, methods, and kits for treating pulmonary non-tuberculosis mycobacterial infections” (priority 2020, dated 2023)
